In a melting point compilation (Tetko et al.; mined from patent text by program, amines drawn as free bases though some values may be those of a salt):

COc1ccnc(N2CCN(C(=O)c3cc4ccccc4[nH]3)CC2)n1 showed a melting point of 202 to 203 °C. N#Cc1c(F)cc2c(c1Cl)N1CCC[C@@H](NC(=O)C(F)(F)F)[C@@H]1c1ccc(F)cc1O2 gave a melting point of 174 to 175 °C. CC(=O)OCc1nc2ccc(Oc3cc(C)c(OC(C)=O)c(C)c3C)nc2n1C showed a melting point of 128 to 129 °C. In the case of COc1ccccc1-n1c(CSc2ncnc3[nH]cnc23)nc2cccc(Cl)c2c1=O, the melting point is reported as 237 °C. With O=C(O)c1ccc2oc(-c3ccccc3)cc(=O)c2c1 the melting point was 281 to 283 °C. Cn1nnc(-c2ccc3[nH]cc(C4=CCN(CCN5CCNC5=O)CC4)c3c2)n1 gave a melting point of 249 to 252 °C. For O=[PH](c1ccc(Cl)cc1)c1ccc(Cl)cc1, the melting point was 124 °C. With CCOC(=O)c1cc(C)n(-c2cccc(C(N)=O)c2)c1-c1ccccc1 the melting point was 209 to 210 °C. For COC(=O)c1cc(NC(=O)c2cc(NC(=O)c3cc(NC(=O)OC(C)(C)C)cn3C)cn2C)cn1C, the melting point was 134 °C. Compound OC(Cn1cncn1)(c1ccccc1)C1OC1c1ccccc1Cl (centres undefined) has a melting point of 180 to 182 °C. Work on O=[N+]([O-])c1ccc(-n2ccnn2)c(F)c1 yielded a melting point of 123 to 124 °C. For CC(C)(COc1ccc([N+](=O)[O-])cc1)N1CC(COc2cccc(Cl)c2)OC1=O (centres undefined), the melting point was 108 to 112 °C. In the case of COC(=O)CCCC#Cc1cc(Cl)ccc1NS(=O)(=O)c1ccc2sc(C)nc2c1, the melting point is reported as 68 to 72 °C. With CCOC(=O)COc1cc(-c2cc3nccnc3[nH]2)ccc1OC the melting point was 183 to 184 °C. In the case of Cc1cccc(Nc2cc(Cl)nc(SCC(=O)NC(C)C)n2)c1C, the melting point is reported as 156 to 158 °C. Work on CCSC1=N[C@@H](c2ccccc2)[C@H](c2ccccc2)N1 (relative stereo) yielded a melting point of 130 to 132 °C. With CC(C)Oc1ccc(CCCCC2SC(=O)NC2=O)cc1 (centres undefined) the melting point was 72 to 73 °C. CNc1nc(Cl)c(OC(F)F)c(OC)n1 showed a melting point of 49 to 53 °C. With CNC(=O)/C=C/c1cccc(Br)c1 the melting point was 147 to 148 °C. In the case of CN1C(=O)CC[C@]2(C)c3ccc(-c4ccc5c(c4)C(=O)C(=O)N5)cc3CC[C@@H]12, the melting point is reported as over 250 °C. With C=CCn1nc(-c2ccc(S(C)(=O)=O)cc2)c(-c2ccc(F)cc2)c1C(F)(F)F the melting point was 116 to 119 °C. Compound CCCCNC(=O)NS(=O)(=O)c1ccc(N2CCC(NC[C@H](O)c3ccc(O)c(NS(C)(=O)=O)c3)CC2)cc1 has a melting point of 100 to 102 °C. Compound COc1ccc(S(=O)(=O)NCCc2ccc(OCC(=O)O)cc2)cc1 has a melting point of 82 to 83 °C. Compound CCOP(=O)(COCC(CO)On1cnc2c(=O)[nH]c(N)nc21)OCC (centres undefined) has a melting point of 238 to 240 °C. With c1ccc2c(c1)SCCc1c-2n(Cc2ccc(OCCCN3CCCCC3)cc2)c2ccccc12 the melting point was 70 to 71 °C. For CCc1c(CC(=O)NCCCCCC(=O)NCCc2ccc(NS(C)(=O)=O)cc2)ccc(OC)c1OC, the melting point was 110 to 112 °C. With CCCCCC(=O)N(Cc1ccccc1)c1nc(C)ns1 the melting point was 72 °C. C/C(=C\Cn1oc(=O)[nH]c1=O)c1cccc(OCc2nc(-c3ccc(OC(F)(F)F)cc3)oc2C)c1 showed a melting point of 145 to 146 °C. Compound NC(=O)Cc1ccc2[nH]cc(CCNC(=O)OCc3ccccc3)c2c1 has a melting point of 124 to 125 °C. Compound CC#CCOc1cc(Oc2cccc(F)c2)ncn1 has a melting point of 60.1 °C. Work on C=C(Nc1nc(-c2ccccc2)c(-c2nc3ccccc3c(=O)n2-c2ccccc2Cl)s1)c1ccco1 yielded a melting point of over 275 °C. N#Cc1ccc(Nn2cnnc2)cc1-c1ccc(F)cc1 showed a melting point of 231 to 234 °C. Work on COC(=O)NC1=NC(c2cccc3ccccc23)CN1 (centres undefined) yielded a melting point of 208 to 209 °C. Compound O=S1(=O)CCN2C=CC=C(c3ccc(Oc4ccc(Cl)cc4)cc3)C2=N1 has a melting point of 232 to 234 °C. With CCN(CC)c1cccc2nc3n(c12)CC(OC)CCN3c1ccc(Cl)cc1Cl (centres undefined) the melting point was 120 to 122 °C. Compound O=c1cc(-c2ccc([N+](=O)[O-])cc2)c2c(O)cc(O)cc2o1 has a melting point of 268 to 270 °C. In the case of CCC(=O)NCCCSc1ccncc1, the melting point is reported as 50 to 51 °C. With COC(=O)C1=C(C)NC(C)=C(C(=O)OC)C1c1ccccc1-c1ccsc1 the melting point was 164 to 166 °C. With CC(=O)c1ccc(C(C)(c2ccc(C(C)=O)cc2)c2ccc(C(C)=O)cc2)cc1 the melting point was 232 °C. For N#Cc1cncc(OC2SCC(O)C(O)C2O)c1 (centres undefined), the melting point was 149 °C. Compound CC(C)S(=O)(=O)c1cc(O)c(N)c(C#N)c1 has a melting point of 166 to 167 °C. With CCCCOCCOc1ccc(-c2ccc(N3CCC(C(=O)OC)C3)c(C=C(C)C(=O)O)c2)cc1 (centres undefined) the melting point was 140 to 141 °C. In the case of CC(=O)OC1CCC2C3CCC4=CC(=O)CCC4(C)C3(Br)C(F)CC12C (centres undefined), the melting point is reported as 172 to 174 °C. CCCc1nc2ccccc2c(C(=O)O)c1Oc1ccc(-c2ccccc2C(N)=O)cc1 showed a melting point of 230 °C. With N#CC1(N)CC2(OC(c3ccccc3)C(c3ccccc3)O2)C2C1C2(F)C(N)=O (centres undefined) the melting point was 197 °C. With CSc1cc(C)nc(SC)c1NC(=O)CSc1nc2cccc(C(F)(F)F)c2o1 the melting point was 207 to 209 °C. Brc1csc2cc(OCc3ccccc3)ccc12 gave a melting point of 68 °C. CC(C)(CNc1ccnc2cc(Cl)ccc12)NCc1c(Cl)cccc1Cl gave a melting point of 154 to 155 °C. Cc1csc(C2CCN(CCCC(O)c3ccc(F)cc3)CC2)n1 (centres undefined) gave a melting point of 98 to 99 °C. In the case of CN(C)Cc1ccc2cc(NC(=O)c3ccc(-c4ccc(Cl)cc4)cc3)ccc2n1, the melting point is reported as 219 to 221 °C. Compound CC(=O)c1cccc(-c2ccc(COc3ccc(C(=O)O)c(O)c3)cc2)c1 has a melting point of 215 to 220 °C. O=c1oc(=O)n(-c2ccc(F)cc2)c2ccccc12 gave a melting point of 199 to 201 °C. Work on OC(Cn1cncn1)(c1ccc(F)cc1F)C(F)(F)F (centres undefined) yielded a melting point of 110 to 111 °C. In the case of C1=CCC(C2CCCCCCC2)N=NC(C2CCCCCCC2)CC=CCC1 (centres undefined), the melting point is reported as 62 to 63 °C. In the case of CC(C)c1csc(CO)n1, the melting point is reported as 80 to 82 °C. In the case of CCCCN(CCCC)CCCNC(=O)c1ccc2oc3ccc(C(=O)NCCCN(CCCC)CCCC)cc3c(=O)c2c1, the melting point is reported as 89 to 92 °C. COc1ccc(C(C)=O)c2c1CCN2C(C)=O showed a melting point of 88 to 89 °C. In the case of CCC(=C(N)N)[N+](=O)[O-], the melting point is reported as 114 to 116 °C. For COC(=O)NC(C)(C(=O)NS(=O)(=O)c1ccc(C)cc1)C(C)C (centres undefined), the melting point was 120 to 122 °C. Work on Nc1ccc(CN2C(=O)C3(COc4cc5c(cc43)OCCO5)c3ccccc32)cn1 (centres undefined) yielded a melting point of 117 to 119 °C. Compound Cc1oc(-c2ccccc2)nc1/C=C/c1ccc(C=O)cc1 has a melting point of 158 to 159 °C. In the case of Cc1cccc(NC(=O)NCC(=O)N(CC(=O)OCc2ccccc2)c2ccccc2)c1, the melting point is reported as 140 °C. In the case of CC1=NC(C)c2nnc(-c3ccc(Cl)cc3)n2-c2ccccc21 (centres undefined), the melting point is reported as 230 °C. COc1cc(OC)cc(C(O)C(=O)c2ccccc2)c1 (centres undefined) gave a melting point of 98 to 104 °C. Work on O=C(Nc1cccc2c(-n3c(-c4cccnc4)nc4ccccc43)ccnc12)c1c(Cl)cccc1Cl yielded a melting point of 203 to 204 °C. In the case of CCN1CCCC(NC(=O)c2ccccc2Nc2ccnc3cc(Cl)ccc23)C1 (centres undefined), the melting point is reported as 187 to 188 °C. In the case of COC(=O)Cc1ccc(NC(=O)c2sc3ccc(OC)cc3c2OC(C)C)cc1, the melting point is reported as 111 to 113 °C. Compound CCOC(=O)c1cc2sc(C3CCC(c4c(F)cccc4F)=N3)cc2s1 (centres undefined) has a melting point of 107 °C. In the case of Cc1c(Cc2cccc(C(F)(F)F)c2)oc2cccc(-c3cccc(C(=O)NCCO)c3)c12, the melting point is reported as 139 to 141 °C. O=C(O)Cc1ccc(C(=O)c2cccs2)cc1 gave a melting point of 126 to 129 °C. Work on Nc1cccc(C=C2c3ccccc3CCc3ccccc32)c1 yielded a melting point of 204 °C. Work on O=C1C(=O)c2ccccc2C2=C1SCC1(CCN(CCCOc3ccc(F)cc3)CC1)O2 yielded a melting point of 164 to 165 °C. With Cc1ccc2c(c1)C(CCO)N(c1cccc([N+](=O)[O-])c1)N(C)C2=O (centres undefined) the melting point was 169 to 170 °C. OCC1OC(n2cnc3c2ncn2ccnc32)CC1O (centres undefined) showed a melting point of 138 to 141 °C. COc1cccc(N2C(c3ccccc3Cl)=NS(=O)(=O)c3cnccc32)c1 gave a melting point of 227 to 229 °C. Work on COC(=O)C=Cc1ccc(CO)cc1 yielded a melting point of 86 to 87 °C. Work on N#Cc1c(N2CCN(CCCCCC(=O)N3Cc4ccccc4C3)CC2)cccc1C(F)(F)F yielded a melting point of 160 °C. For CCCCC1OC(=O)c2cc(NC(=O)OCC)ccc21 (centres undefined), the melting point was 125 to 126 °C. Cc1cc(=S)cc(C)n1CCN showed a melting point of 162 to 164 °C. For CN(CC#CC1=Cc2ccccc2Sc2ccc(Cl)cc21)CCO, the melting point was 86 to 88 °C. In the case of COc1ccc(-c2cc(F)c(F)cc2-c2ccc(S(C)(=O)=O)cc2)cc1Cl, the melting point is reported as 148 °C. Compound CC(C)(C)OC(=O)Nc1cc(N2CCSCC2)c(I)cc1[N+](=O)[O-] has a melting point of 132 to 134 °C. For CC1(c2nn(-c3ccc([N+](=O)[O-])cc3Cl)c(=O)o2)CC1, the melting point was 95 to 97 °C. Compound COc1ccc(-n2nc(Cl)cc2-c2ccc(OCCNS(C)(=O)=O)cc2)cc1 has a melting point of 117 to 119 °C. For CCCOc1ccccc1C1N=C2N=NC=C2C(=O)N1 (centres undefined), the melting point was 182 to 184 °C. For O=C(CN(C(=O)CCl)C1Cc2ccccc2C1)OCc1ccccc1, the melting point was 99.5 to 100 °C. In the case of CCOC(=O)CCCOc1ccc(C(N)=O)cc1, the melting point is reported as 144 to 146 °C. For Cc1ccc(S(=O)(=O)Nc2ccc(-c3ccc(S(=O)(=O)n4ccc(C=CC(=O)NO)c4)cc3)cc2)cc1, the melting point was 119 to 126 °C. Work on COc1cc(C(=O)CC(=O)c2ccccc2O)cc([N+](=O)[O-])c1OC yielded a melting point of 188 to 189 °C. COc1ccnc(CCc2nc3cc(-c4ccoc4)cnc3[nH]2)c1 gave a melting point of 193 to 194 °C. For Cn1c(-c2ccccc2)nc2ncnn2c1=S, the melting point was 246 to 248 °C. In the case of OCC(O)CSSc1nc2ccccc2s1 (centres undefined), the melting point is reported as 115 to 120 °C. Oc1cc2c3ccc(O)c(O)c3n(Cc3ccc(Br)cc3)c2cc1O showed a melting point of 249 to 252 °C. Compound Cc1[nH]c2cc(C(=O)c3ccccc3)ccc2c1/C=C/C(=O)c1ccncc1 has a melting point of 267 to 270 °C. In the case of O=S(=O)(Nc1cccc(OCCc2ccc3ccccc3c2)c1)c1cccc2ccccc12, the melting point is reported as 165 to 167 °C. Compound N#Cc1nn(-c2c(Cl)cc(C(F)(F)F)cc2Cl)cc1-c1ccccc1C(F)(F)F has a melting point of 142 to 143 °C. In the case of COc1ccnc(CSc2nc3cscc3n2COC(C)=O)c1, the melting point is reported as 111 to 113 °C. COC1=C(OC)C(=O)c2c(cccc2S(=O)(=O)c2ccccc2)C1=O gave a melting point of 141 to 142 °C. For CCCCCCCCCCCc1cc2ccc(C(=O)OCC(O)CO)cc2[nH]1 (racemic), the melting point was 110 to 112 °C.
